Reference: US20260176289A1, “SMALL MOLECULE INHIBITORS OF KRAS PROTEINS” (Merck Sharp & Dohme LLC, priority 2022, published 2026)

Tests used:
Assay type in all cases: biochemical
[1] = biological target: T1, KRAS G12C (amino acids 1-169) (Homo sapiens, UniProt P01116, G12C); experiment: SOS-catalyzed nucleotide exchange assay (Procedure B, BODIPY FL GDP displacement), KRAS G12C; settings: read-out: KRAS G12C GNE IC50
T1 construct: made in house; host or cells: E. coli
Experimental: (§1) Procedure for SOS-Catalyzed Nucleotide Exchange Assay for KRAS-G12C/D/V/WT (Procedure B)
(§2) Recombinant KRAS G12C (amino acids 1-169, SEQ ID NO:9), KRAS G12D (amino acids 1-169, SEQ ID NO: 10), KRAS G12V (amino acids 1-169, SEQ ID NO: 11), KRAS WT (amino acids 1-169, SEQ ID NO:12) and SOS1 (amino acids 564-1049, SEQ ID NO: 13) proteins were expressed in E. coli and purified by affinity chromatography. To prepare each BODIPY™ FL GDP-bound KRAS protein, 50 μM KRAS proteins were incubated with 0.5 mM BODIPY™ FL GDP (Invitrogen, G22360) in a loading buffer (20 mM Tris-HCl pH 7.5, 50 mM NaCl, 1 mM DTT and 2.5 mM EDTA) for 1 hour on ice. After the incubation, MgCl2 was added to a final concentration of 10 mM, followed by an incubation at room temperature for 30 minutes. The mixtures were allowed to pass through a NAP-5 column to remove free nucleotides and purified BODIPY™ FL GDP-bound KRAS G12C, G12D, G12V and WT proteins were used for compound evaluation.
(§3) The inhibitory activity of compounds on recombinant KRAS is measured by the displacement of the bound BODIPY™ GDP. Specifically, 2.5 nM of each BODIPY™ FL GDP-bound KRAS complex was incubated with various concentrations of compound in a reaction buffer (20 mM Tris-HCl pH 7.5, 100 mM NaCl, 1 mM MgCl2, 2 mM DTT, 0.1% Tween 20) at 25° C. for 1 hour. After the incubation, recombinant SOS1 and GMPPNP (Jena Bioscience GmbH, NU-401) were added and incubated at room temperature for 30 minutes to proceed SOS1-dependent GDP-GTP exchange reaction on KRAS. Displacement of BODIPY™ FL GDP by Guanosine-5′-[(β,γ)-imido]triphosphate, Tetralithium salt (GMPPNP) was measured by calculating the ratio of fluorescence intensities of BODIPY™ FL before and after the exchange reaction. Percent Inhibition was calculated by setting the fluorescence ratio from the reaction without test compound (DMSO control) and the fluorescence ratio from the reaction without SOS1 and GMPPNP as 0% and 100% inhibition, respectively. Dose response curves were analyzed using a 4-parameter logistic model to calculate IC50 values.

[2] = biological target: T2, KRAS WT (amino acids 1-169) (Homo sapiens, UniProt P01116); experiment: SOS-catalyzed nucleotide exchange assay (Procedure B, BODIPY FL GDP displacement), KRAS WT; settings: read-out: KRAS WT GNE IC50
T2 construct: made in house; host or cells: E. coli
T2 sequence (P01116 with tags, fused parts or gaps isoform P01116-2): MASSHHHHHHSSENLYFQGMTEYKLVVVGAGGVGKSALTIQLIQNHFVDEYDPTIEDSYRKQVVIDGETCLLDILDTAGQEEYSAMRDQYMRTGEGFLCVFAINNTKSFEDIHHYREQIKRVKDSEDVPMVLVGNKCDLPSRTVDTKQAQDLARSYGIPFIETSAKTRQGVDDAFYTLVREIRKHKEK
Experimental: as §1, §2, §3

[3] = biological target: T3, KRAS G12D (amino acids 1-169) (Homo sapiens, UniProt P01116, G12D); experiment: SOS-catalyzed nucleotide exchange assay (Procedure B, BODIPY FL GDP displacement), KRAS G12D; settings: read-out: KRAS G12D GNE IC50
T3 construct: made in house; host or cells: E. coli
T3 sequence (P01116 with tags, fused parts or gaps isoform P01116-2 G12D): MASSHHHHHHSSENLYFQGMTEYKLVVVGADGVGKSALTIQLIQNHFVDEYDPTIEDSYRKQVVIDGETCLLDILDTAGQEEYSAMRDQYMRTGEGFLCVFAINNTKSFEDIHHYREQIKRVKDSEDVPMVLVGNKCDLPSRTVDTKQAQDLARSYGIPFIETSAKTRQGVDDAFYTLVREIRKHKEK
Experimental: as §1, §2, §3

[4] = biological target: T4, KRAS G12V (amino acids 1-169) (Homo sapiens, UniProt P01116, G12V); experiment: SOS-catalyzed nucleotide exchange assay (Procedure B, BODIPY FL GDP displacement), KRAS G12V; settings: read-out: KRAS G12V GNE IC50
T4 construct: made in house; host or cells: E. coli
T4 sequence (P01116 with tags, fused parts or gaps isoform P01116-2 G12V): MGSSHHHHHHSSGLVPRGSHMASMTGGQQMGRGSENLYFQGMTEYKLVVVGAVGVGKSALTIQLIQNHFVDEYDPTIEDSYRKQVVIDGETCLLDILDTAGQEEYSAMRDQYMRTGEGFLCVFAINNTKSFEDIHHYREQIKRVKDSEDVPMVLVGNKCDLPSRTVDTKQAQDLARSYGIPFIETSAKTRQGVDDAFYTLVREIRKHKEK
Experimental: as §1, §2, §3

T1 sequence (P01116 with tags, fused parts or gaps isoform P01116-2 G12C): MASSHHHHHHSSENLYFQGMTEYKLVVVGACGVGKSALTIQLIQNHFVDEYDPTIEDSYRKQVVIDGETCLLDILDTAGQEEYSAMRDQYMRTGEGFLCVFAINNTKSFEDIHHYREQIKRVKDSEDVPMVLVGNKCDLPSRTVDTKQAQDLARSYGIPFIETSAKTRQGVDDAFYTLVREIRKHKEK

SMILES	IC50 [1] [nM]	IC50 [2] [nM]	IC50 [3] [nM]	IC50 [4] [nM]
COCC1CCc2cc3[nH]ncc3c(-c3nccc4c3sc3nc(OC[C@@]56CCCN5C[C@H](F)C6)nc(N5CCOC[C@@](C)(O)C5)c34)c21 (single isomer, unassigned) [Ex-97]	9.73	8.37	3.16	7.19
CC1(F)c2c(cc3[nH]ncc3c2-c2nccc3c2sc2nc(OC[C@@]45CCCN4C[C@H](F)C5)nc(N4CCOC[C@@](C)(O)C4)c23)CC1(F)F (single isomer, unassigned) [Ex-99]	52.4	56.5	27.3	65.6
Cc1cc2[nH]ncc2c(-c2nccn3c2c(C)c2nc(OC[C@@]45CCCN4C[C@H](F)C5)nc(N4CCOC[C@@](C)(O)C4)c23)c1C(F)(F)F (single isomer, unassigned) [Ex-301]	107	107	49.5	86.1
C[C@@]1(O)COCCN(c2nc(OC[C@@]34CCCN3C[C@H](F)C4)nc3sc4c(-c5c(C6(F)CC6)c(C6CC6)cc6[nH]ncc56)nccc4c23)C1 [Ex-57, (6S)-4-(8-(6-cyclopropyl-5-(1-fluorocyclopropyl)-1H-indazol-4-yl)-2-(((2R,7aS)-2-fluorotetrahydro-1H-pyrrolizin-7a(5H)-yl)methoxy)pyrido[4′,3′: 4,5]thieno[2,3-d]pyrimidin-4-yl)-6-methyl-1,4-oxazepan-6-ol]	62.5	29.3	26.9	41.3
CC(=O)c1c(C(F)(F)F)cc2[nH]ncc2c1-c1nccc2c1sc1nc(OC[C@@]34CCCN3C[C@H](F)C4)nc(N3CCOC[C@@](C)(O)C3)c12 [Ex-59]	183	112	71.9	125
C[C@@]1(O)COCCN(c2nc(OC[C@@]34CCCN3C[C@H](F)C4)nc3sc4c(-c5c(-c6cnco6)c(Cl)cc6[nH]ncc56)nccc4c23)C1 [Ex-75, (6S)-4-(8-(6-chloro-5-(oxazol-5-yl)-1H-indazol-4-yl)-2-(((2R,7aS)-2-fluorotetrahydro-1H-pyrrolizin-7a(5H)-yl)methoxy)pyrido[4′,3′:4,5]thi-eno[2,3-d]pyrimidin-4-yl)-6-methyl-1,4-oxazepan-6-ol]	56	60.8	19.3	118
C[C@@]1(O)COCCN(c2nc(OC[C@@]34CCCN3C[C@H](F)C4)nc3sc4c(-c5c6c(cc7[nH]ncc57)CCC6=O)nccc4c23)C1 [Ex-89, 4-(2-(((2R,7aS)-2-fluorotetrahydro-1H-pyrrolizin-7a(5H)-yl)methoxy)-4-((S)-6-hydroxy-6-methyl-1,4-oxazepan-4-yl)pyrido[4′,3′:4,5]thieno [2,3-d]pyrimidin-8-yl)-6,7-dihydrocyclopenta[f]inda-zol-5(1H)-one]	138	171	80	245
CCC1CCc2cc3[nH]ncc3c(-c3nccc4c3sc3nc(OC[C@@]56CCCN5C/C(=C\F)C6)nc(N5CCOC[C@@](C)(O)C5)c34)c21 (stereo partly drawn) [Ex-94, (6S)-4-(8-(5-ethyl-1,5,6,7-tetrahydrocyclopenta[f]in-dazol-4-y1)-2-(((S,Z)-2-(fluoromethylene)tetrahy-dro-1H-pyrrolizin-7a(5H)-yl)methoxy)pyrido[4′,3':4,5]thi-eno[2,3-d]pyrimidin-4-y1)-6-methyl-1,4-oxazepan-6-ol]	5.33	3.82	1.68	4.2
CC1c2c(cc3[nH]ncc3c2-c2nccc3c2sc2nc(OC[C@@]45CCCN4C[C@H](F)C5)nc(N4CCOC[C@@](C)(O)C4)c23)C(C)(C)C1(F)F (stereo partly drawn) [Ex-100, (6S)-4-(8-(6,6-difluoro-5,7,7-trimethyl-1,5,6,7-tetrahydrocyclopenta[f]in-dazol-4-yl)-2-(((2R,7aS)-2-fluorotetrahydro-1H-pyrrolizin-7a(5H)-yl)methoxy)pyrido[4′,3′: 4,5]thieno[2,3-d]pyrimidin-4-yl)-6-methyl-1,4-oxazepan-6-ol]	663	354	216	507
CCC1CC(F)(F)c2cc3[nH]ncc3c(-c3nccc4c3sc3nc(OC[C@@]56CCCN5C[C@H](F)C6)nc(N5CCOC[C@@](C)(O)C5)c34)c21 (stereo partly drawn) [Ex-102, (6S)-4-(8-(5-ethyl-7,7-difluoro-1,5,6,7-tetrahydrocyclopenta[f]in-dazol-4-yl)-2-(((2R,7aS)-2-fluorotetrahydro-1H-pyrrolizin-7a(5H)-yl)methoxy)pyrido[4′,3′:4,5]thi-eno[2,3-d]pyrimidin-4-yl)-6-methyl-1,4-oxazepan-6-ol]	10.3	7.84	3.56	10.4

Other lines, results leading:

IC50 [1] [nM]	IC50 [2] [nM]	IC50 [3] [nM]	IC50 [4] [nM]	SMILES
39	57.3	21.9	97.2	C[C@@H]1C[C@@H]1c1c(Cl)cc2[nH]ncc2c1-c1nccc2c1sc1nc(OC[C@@]34CCCN3C[C@H](F)C4)nc(N3CCOC[C@@](C)(O)C3)c12 (atropisomer, axis not shown; (aS)) [Ex-68, (S)-4-((R)-8-(6-chloro-5-((1S,2R)-2-methylcyclopropyl)-1H-indazol-4-yl)-2-(((2R,7aS)-2-fluorotetrahydro-1H-pyrrolizin-7a(5H)-yl)methoxy)pyrido[4′,3′:4,5]thi-eno[2,3-d]pyrimidin-4-yl)-6-methyl-1,4-oxazepan-6-ol]
7.03	3.13	1.64	3.7	C=CC1CCc2cc3[nH]ncc3c(-c3nccc4c3sc3nc(OC[C@@]56CCCN5C[C@H](F)C6)nc(N5CCOC[C@@](C)(O)C5)c34)c21 (single isomer, unassigned) [Ex-93]
19.8	6.2	3.81	9.52	CC1c2c(cc3[nH]ncc3c2-c2nccc3c2sc2nc(OC[C@@]45CCCN4C[C@H](F)C5)nc(N4CCOC[C@@](C)(O)C4)c23)CC1(F)F (single isomer, unassigned) [Ex-107]
819	933	438	1260	C[C@@]1(O)COCCN(c2nc(OC[C@@]34CCCN3C[C@H](F)C4)nc3sc4c(-c5c(C6=CCOC6)c(Cl)cc6[nH]ncc56)nccc4c23)C1 [Ex-74, (6S)-4-(8-(6-chloro-5-(2,5-dihydrofuran-3-yl)-1H-indazol-4-yl)-2-(((2R,7aS)-2-fluorotetrahydro-1H-pyrrolizin-7a(5H)-yl)methoxy)pyrido[4′,3′:4,5]thi-eno[2,3-d]pyrimidin-4-yl)-6-methyl-1,4-oxazepan-6-ol]
91.5	99.4	49.8	65	CCCC1CCc2cc3[nH]ncc3c(-c3nccc4c3sc3nc(OC[C@@]56CCCN5C[C@H](F)C6)nc(N5CCOC[C@@](C)(O)C5)c34)c21 (some centres unmarked) [Ex-95]
193	125	43.8	105	C[C@@]1(O)COCCN(c2nc(OC[C@@]34CCCN3C[C@H](F)C4)nc3sc4c(-c5c6c(cc7[nH]ncc57)CCC6C#N)nccc4c23)C1 (stereo partly drawn) [Ex-96, 4-(2-(((2R,7aS)-2-fluorotetrahydro-1H-pyrrolizin-7a(5H)-yl)methoxy)-4-((S)-6-hydroxy-6-methyl-1,4-oxazepan-4-yl)pyrido[4′,3′:4,5]thieno [2,3-d]pyrimidin-8-yl)-1,5,6,7-tetrahydrocyclopenta[f]in-dazole-5-carbonitrile]
6.44	4	1.99	5.16	CC1CC(F)(F)c2cc3[nH]ncc3c(-c3nccc4c3sc3nc(OC[C@@]56CCCN5C[C@H](F)C6)nc(N5CCOC[C@@](C)(O)C5)c34)c21 (stereo partly drawn) [Ex-101, (6S)-4-(8-(7,7-difluoro-5-methy1-1,5,6,7-tetrahydrocyclopenta[f]in-dazol-4-yl)-2-(((2R,7aS)-2-fluorotetrahydro-1H-pyrrolizin-7a(5H)-yl)methoxy)pyrido[4′,3′:4,5]thi-eno[2,3-d]pyrimidin-4-yl)-6-methyl-1,4-oxazepan-6-ol]
